Results published in patent publication US11292773B2, “Small molecule inhibitors of BCL-2-associated death promoter (BAD) phosphorylation” (NATIONAL UNIVERSITY OF SINGAPORE, priority 2017, dated 2022).

Tests used:
[1] = molecular target: T1, hBAD phosphorylation (Ser75, Ser99) (Homo sapiens, UniProt Q92934); assay: Western blot of hBAD Ser75 and Ser99 phosphorylation in 25 carcinoma cell lines; type: cell-based; conditions: all tested carcinoma cell lines, NPB 5 μM
T1 construct: endogenous in cells; host or cells: MCF7 (A6); 25 carcinoma cell lines of seven cancer types (A7)
T1 sequence (Q92934 1-168): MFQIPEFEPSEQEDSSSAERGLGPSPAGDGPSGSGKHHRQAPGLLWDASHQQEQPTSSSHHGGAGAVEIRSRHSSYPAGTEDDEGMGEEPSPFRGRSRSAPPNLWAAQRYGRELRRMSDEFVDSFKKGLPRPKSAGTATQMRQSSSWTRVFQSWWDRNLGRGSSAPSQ
Method: (§1) (A) WB analysis was used to assess the levels of phosphorylated human BAD (at Ser75 and Ser99) and BAD protein in the range of carcinoma cell lines, including mammary, ovarian, pancreatic, endometrial, hepatocellular, colon and prostate cancer after treatment with NPB (5 μM). Total BAD was used as an input control for cell lysate. (B) WB analysis was used to assess the levels of pBAD (Ser99) and pAKT (Ser473), AKT and BAD in MCF7, Caov-3, Ishikawa, and AsPC-1 cells. 5 μM each of AKT inhibitor (IV) and NPB was used to treat cells. Depletion of AKT expression was achieved using transient-transfection of short hairpin (sh)-RNA (1&2) directed to AKT transcript as described in methodology. β-ACTIN was used as an input control for cell lysate. For WB analysis, soluble whole cell extracts were run on an SDS-PAGE and immunoblotted as described in materials methodology. The sizes of detected protein bands in kDa are shown on the left side. Note: #; non-transformed immortalized-cell line.
We next analyzed the effect of NPB on phosphorylation of hBAD at both Ser75 and Ser99 by western blot analysis in 25 carcinoma cell lines derived seven different types of cancer.

AKT = assay: Western blot of pAKT (Ser473), AKT, pBAD (Ser99) and BAD in carcinoma cell lines; type: cell-based, human; parameters: dose or concentration left out as unconfirmed; conditions: MCF7, Caov-3, Ishikawa, AsPC-1
Method: as §1, with “5 μM each of AKT inhibitor (IV) and NPB was used to treat cells.” left out
The upstream AKT Ser/Thr kinase regulates the phosphorylation of hBAD at Ser99 [13]. We therefore determined whether NPB inhibits the phosphorylation of hBAD (Ser99) via modulation of the activity of AKT (as indicated by phosphorylation of Ser473) using western blot analysis. We observed no change in the levels of pAKT or levels of total AKT protein after exposure of four different carcinoma cells lines (MCF7, Caov-3, Ishikawa, and AsPC-1) to 10 μM NPB. […]

[2] = molecular target: T2, hBAD Ser99 phosphorylation (Homo sapiens, UniProt Q92934); assay: Western blot of BAD Ser99 phosphorylation in MCF7 cells; type: cell-based
T2 construct: endogenous in cells; host or cells: MCF7 (A6); 25 carcinoma cell lines of seven cancer types (A7)
T2 sequence (Q92934 1-168): T1 sequence (Q92934 1-168)
Method: (A) Sensorgrams obtained by SPR analysis of NPB with the BAD protein subunit. The BAD protein subunit was immobilized onto the surface of a CM5 sensor chip. A solution of NPB at variable concentrations (20-100 μM) was injected to generate result binding responses (RU) recorded as a function of time (sec). The results were analyzed using BIA evaluation 3.1. (B) Western blot (WB) analysis was used to assess the level of Ser99 phosphorylation of BAD in MCF7 cells after treatment with NPB. (Below) Calculated IC50 of NPB from dose-response for BAD phosphorylation (Ser99), BAD and β-ACTIN as in shown above by use of ImageJ software from NIH, USA (http://imagej.nih.gov/ij/). (C) WB analysis was used to assess the level of a multiple proteins involved upstream of BAD in MCF7 cells after treatment with NPB. (D) WB analysis was used to assess the level of a multiple protein involved cell survival and cell proliferation in MCF7 cells after treatment with NPB. For WB analysis, soluble whole cell extracts were run on an SDS-PAGE and immunoblotted as described in methodology. β-ACTIN (ACTB) was used as an input control for cell lysate. The sizes of detected protein bands in kDa are shown on the left side.
Phosphorylation of hBAD at residues Ser-75 (mouse BAD serine residue 112) and Ser-99 (mouse BAD serine residue 136) are crucial in regulating the activity of the BCL-2 family of anti-apoptotic proteins. hBAD phosphorylation either at Ser-75 or Ser99 (or the corresponding residues in mouse bad) results in loss of the ability of hBAD to heterodimerize with BCL-xL or BCL-2 [15]. To further validate the predicted target, we first analyzed the effect of NPB on phosphorylation of hBAD at Ser99 by western blot analysis.

- phosphorylation of BAD at the Ser99 site [1]: largely inhibits
- phosphorylation of hBAD at the Ser75 site [1]: no effect
- phosphorylation of hBAD Ser99 [2]: dose dependent decrease
- total hBAD protein [2]: without a significant change
- EC50 ([2]; ImageJ, read-out: EC50 for inhibition of BAD Ser99 phosphorylation): 410 ± 210 nM
SMILES: O=C(NC1CCCC1)c1cccc(C(c2ccccc2O)N2CCN(c3cccc(Cl)c3Cl)CC2)c1 (stereo not shown) [NPB, N-cyclopentyl-3-((4-(2,3-dichlorophenyl)piperazin-1-yl)(2-hydroxyphenyl)methyl) benzamide]
- BAD phosphorylation at the Ser99 site (AKT): inhibition
- levels of pAKT or total AKT protein (AKT): no change
